This is an account of results in US11666600B2, “Methods for culturing and/or differentiating hematopoietic stem cells into progenitors and uses thereof” (HEMA-QUEBEC, priority 2015, dated 2023).

In experiment [1] the test system is Human G-CSF-mobilized peripheral blood CD34+ cells. Nature of the experiment: Expansion of CD34+/CD41+ megakaryocytic progenitors from mobilized peripheral blood CD34+ cells. The class given is cell-based. As to conditions: 39° C. + PIC 35 nM; 14 days; SFEM + BS1; FIG. 5. Here is the method: Human bone marrow and G-CSF-mobilized peripheral blood CD34+ cells were purchased from AllCells.
Human CD34+-enriched cells (purity 90%) were seeded in 24-well plates at 100 000 cells/mL in expansion medium consisting of either (1) StemSpan™ ACF (ACF; […] Technologies) supplemented with the OMPC cytokine cocktail (Robert et al., 2011), or (2) StemSpan™ SFEM ([…] Technologies) supplemented with the BS1 megakaryocyte expansion and differentiation cocktail (Cortin et al., 2005). OMPC consists of 35 ng/mL thrombopoietin (TPO; Feldan Therapeutics), 10 ng/mL stem cell factor (SCF; Peprotech), and 11 ng/mL human FMS-like tyrosine kinase 3 ligand (FLT3, Peprotech). […]
(§1) Cellular counts and viability were determined by adding Solution 18 (Acridine Orange and DAPI solution, ChemomMetec) and using NucleoCounter™ NC-250 for detection (ChemomMetec).
(§2) For cells expanded in conditions favoring differentiation towards the MK lineage, surface markers were detected using the following antibodies: CD34-FITC, CD41a-APC and CD42b-PE. […] All samples were analyzed on an Accuri™ C6 flow cytometer (BD Biosciences), and raw data were analyzed with FCS Express 5 Flow Research Edition software from at least 15 000 viable cell events acquired for each sample. […]
(§3) Cellular counts and viability were determined as described in Example 6.5.

Experiment [2] has as its system aryl hydrocarbon receptor (AhR) pathway. As to conditions: Fares et al., 2014; cited from earlier work.
Experiment [3] deals with Human CB CD34+-enriched cells. Nature of the experiment: Culture of CB CD34+-enriched cells in erythroid differentiation medium. The class given is cell-based. The note with it: 14 days. The procedure: Human cord blood (CB) was collected after obtaining written informed consent from donors, following our institutional Research Ethics Committee guidelines. Mononuclear cells (MNCs) were first separated over a Ficoll-Hypaque™ density gradient (GE Healthcare), then cryopreserved at −180° C. in Cryostor CS10™ medium ([…] Technologies). Thawed MNCs from six to eight CB were pooled before CD34 isolation. CB CD34+ cells were enriched by positive selection using the EasySep™ CD34 enrichment kit, according to the manufacturer's instructions ([…] Technologies).
Human CB CD34+-enriched cells (purity≥90%) were seeded in 24-well plates at 100 000 cells/mL in expansion medium consisting of Eave's basal medium (Iscove's modified Dulbecco's medium (IMDM), 20% BIT ([…] bovine serum albumin, 10 μg/mL bovine pancreatic insulin, 200 μg/mL human transferrin; […] Technologies), 0.1 mg/mL low-density lipoprotein ([…] Technologies), 50 μM 2-mercaptoethanol) supplemented with 20 ng/mL SCF (Peprotech) and 2 U/mL erythropoietin (EPO; Feldan Therapeutics). Cultures were maintained in a humidified atmosphere with 5% CO2 at 37° C. or 39° C., as indicated in the Examples. Cells were diluted at 300 000 cells/mL with fresh medium every 3 to 4 days.
as §1
For cells expanded in conditions favoring differentiation towards the erythroid lineage, surface markers were detected using the following antibodies: CD34-FITC, CD71-APC and CD235-PE. All antibodies were purchased from BD Biosciences, except for CD34-FITC which was purchased from Immunotech. 7AAD was used as a viability dye. All samples were analyzed on an Accuri™ C6 flow cytometer (BD Biosciences), and raw data were analyzed with FCS Express 5 Flow Research Edition software from at least 15 000 viable cell events acquired for each sample.
as §3

A further experiment has as its system cord blood CD34+ cells. Nature of the experiment: Expansion of CD34+/CD41+ megakaryocytic progenitors from cord blood CD34+ cells. It is filed as cell-based, human. The note with it: 39° C. + PIC 35 nM; 14 days; ACF + OMPC; FIG. 4. Here is the method: Human cord blood (CB) was collected after obtaining written informed consent from donors, following our institutional Research Ethics Committee guidelines. Mononuclear cells (MNCs) were first separated over a Ficoll-Hypaque™ density gradient (GE Healthcare), then cryopreserved at −180° C. in Cryostor CS10™ medium ([…] Technologies). Thawed MNCs from six to eight CB were pooled before CD34 isolation. CB CD34+ cells were enriched by positive selection using the EasySep™ CD34 enrichment kit, according to the manufacturer's instructions ([…] Technologies). […]
as §1, §2
Cellular counts and viability were determined as described in Example 6.5. […]

Each structure is given as a SMILES string.

`Cl.Cn1nnc(-c2ccc3c(c2)[nH]c2nc(Cc4ccccc4)nc(N[C@H]4CC[C@H](N)CC4)c23)n1` [PIC, (1r,4r)-N1-(2-benzyl-7-(2-methyl-2H-tetrazol-5-yl)-9H-pyrimido[4,5-b]indol-4-yl)cyclohexane-1,4-diamine hydrochloride]: the “combined use of mild hyperthermia and PIC on expansion of CD34+/CD41+ cells” value (in experiment [1]; in the experiment with cord blood CD34+ cells) was “synergistic effect” each time. Moreover, in experiment [2], the “suppression of the aryl hydrocarbon receptor (AhR) pathway” value is on record as “without acting as suppressors”. Moreover, in experiment [3] (39° C. + PIC 35 nM, erythroid differentiation medium, FIG. 12), the “mild hyperthermia and PIC on expansion of CB CD34+ cells” value is listed as “additive effect”. For the same molecule, in experiment [3] (39° C. + PIC 35 nM, erythroid differentiation medium, FIG. 13), the “mild hyperthermia and PIC on expansion of CB CD34+/CD71+ cells (erythroid progenitors)” value is reported as “additive effect”. Further, the “effect of addition of PIC on expansion of CD71+ erythroid precursors” value in experiment [3] (PIC 35 nM, 37° C. and 39° C., FIG. 10) is “decrease”. Moreover, in experiment [3] (PIC 35 nM, 37° C. and 39° C., FIG. 11), the “effect of addition of PIC on total cell expansion” value is “decrease”.
